# Measurements taken from US10617734B2, “STAT3 and ERK signal pathway inhibitor comprising mogrosides and analogs thereof” (BEIJING UNIVERSITY OF AGRICULTURE, priority 2014, dated 2020).
# Legend:
# [1] = test system: phosphorylated STAT3 (P-STAT3, Tyr705); assay: Western Blotting of phosphorylated STAT3 in U937 cells; type: cell-based; conditions: 10 μmol/L, 24 hours
# Description: The inhibition of the STAT3 and ERK signal pathways achieved by Mogroside I E1, Mogroside II A2 and mogrol was detected by Western Blotting, specifically:
# Group 1: histiocytic lymphoma U937 cells (1×10^6 cells/well) were inoculated into a 6-well culture plate for staying overnight, and 0 and 10 μmol/L of Mogroside I E1, Mogroside II A2 and mogrol were added respectively, and the culture was continued for 24 hours;
# After the termination of the cell culture, the culture solution was removed, and the residue was washed with PBS (0.01 mol/L, pH 7.4), and then a cell lysis solution containing protease inhibitors was added at an amount of 50 μl/well, and the mixture was placed in an ice bath for lysis at 4° C. for 30 min and then centrifuged at 14000 r/min for 10 min, and then total proteins were obtained from the supernatant;
# The protein concentrations were measured with bovine serum albumin (BSA) as the standard. 50 μg of the total proteins was separated by polyacrylamide gel electrophoresis with 12% […], electrophoretically transferred to a PVDF membrane (polyvinylidene fluoride membrane), and blocked for 1 h by 5% of skim milk (containing 0.1% of Tween 20), and then antibodies p-STAT3 (Tyr705) and p-Erk1/2 as well as β-actin were added, and the primary antibody was incubated at 4° C. overnight (β-actin was used as reference in loading amount); the membrane was washed for 3 times with TBS-T, 5 min each time; secondary antibody marked by horseradish peroxidase (HRP) was added for incubation at room temperature for 1 h, the membrane was washed for 3 times with a wash solution (TBS-T), 10 min each time, and then ECL was added for incubation in dark for 5 min, and subsequently, a fluorescence imaging analyzer was used for image development and scanning analysis, and the results of Western Blotting detection are shown in FIGS. 4 to 6.
# [2] = test system: cycle regulatory protein P21; assay: Western Blotting of P21 in U937 cells; type: cell-based; conditions: 10 μmol/L, 24 h
# Description: (§1) The STAT3 and ERK signal pathways can regulate cyclins and apoptosis genes, and in order to verify the effects of […] and mogrol, the expression status of downstream genes of STAT3 and ERK was detected, wherein the influences of the three mogrosides and analogs thereof, i.e. Mogrol I E1, Mogrol II A2 and mogrol, on Bcl-2 and P21 proteins in the histiocytic lymphoma U937 cells, human melanoma A875 cells and leukemia cells K562 were determined, respectively.
# (§2) The regulation of Bcl-2 and P21 proteins by mogrosides and analog thereof to the was detected by Western Blotting, specifically: histiocytic lymphoma U937 cells, human melanoma A875 cells and leukemia cells K562 (1×10^6 cells/well) were inoculated into a 6-well culture plate overnight, and 0 and 10 μmol/L of the mogrosides and analogs thereof were added respectively, and kept cultured for 24 h. […]
# (§3) The protein concentration was measured with bovine serum albumin (BSA) as the standard. 50 μg of the total proteins were separated by polyacrylamide gel electrophoresis with 12% SDS, and electrophoretically transferred to a PVDF membrane (polyvinylidene fluoride membrane), and blocked for 1 h by 5% of skim milk (containing 0.1% of Tween 20), and then antibodies P21, Bcl-2 and β-actin were added, wherein the primary antibody was incubated at 4° C. overnight (β-actin was used as reference loading amount); the membrane was washed for 3 times with TBS-T, 5 min each time; secondary antibody marked by horseradish peroxidase (HRP) was added for incubation at room temperature for 1 h, the membrane was washed with rinse solution (TBS-T) for 3 times, 10 min each time, and then ECL was added for incubation in dark for 5 min, and subsequently, a fluorescence imaging analyzer was used for image development and scanning analysis.
# [3] = test system: cycle regulatory protein P21; assay: Western Blotting of P21 in K562 cells; type: cell-based, human; conditions: leukemia cells K562, 10 μmol/L, 24 h
# Description: as §1, §2, §3
# [4] = test system: anti-apoptotic protein Bcl-2; assay: Western Blotting of Bcl-2 in K562 cells; type: cell-based, human; conditions: leukemia cells K562, 10 μmol/L, 24 h
# Description: as §1, §2, §3
# [5] = test system: histiocytic lymphoma U937 cells; assay: Cell cycle distribution, PI staining, flow cytometer; type: cell-based; conditions: 24 h
# Source text: (§4) The influences of Mogroside I E1, Mogroside II A2 and mogrol on the cell cycle distribution of the histiocytic lymphoma U937 cells, the human melanoma A875 cells and the leukemia cells K562.
# (§5) The cell cycle arrest achieved by drugs is an important approach to the inhibition of cancer cell proliferation.
# [6] = test system: human melanoma A875 cells; assay: as above; type: cell-based
# Source text: as §4, §5
# leukemia cells K562 [7] = assay: as above; type: cell-based, human; conditions: leukemia cells K562, 10 μmol/L, 24 h
# Source text: as §4, §5
# [8] = test system: human melanoma A875 cells; assay: Cell apoptosis, Annexin V-FITC/PI, flow cytometer; type: cell-based; conditions: 10 μmol/L, 24 h
# Description: Mogroside I E1, Mogroside II A2 and mogrol) for 24 h, cells were collected and washed twice with 200 μl of cold PBS, and then the cells were collected again; 100 μl of binding buffer was added for re-suspending the cells, and after the addition of 2 μl of Annexin V-FITC and well mixing, the resulting mixture was placed in dark at room temperature for 10 min, and then 5 μl of propidium iodide (PI) was added and then well mixed; the mixture was placed in dark at room temperature for 10 min, and detected by flow cytometer, and the results are shown in FIGS. 13-15.
# leukemia cells K562 [9] = assay: Cell apoptosis, Annexin V-FITC/PI, flow cytometer; type: cell-based, human; conditions: leukemia cells K562, 10 μmol/L, 24 h
# Description: Lymphoma U937 cells, human melanoma A875 cells and leukemia cells K562 in logarithmic growth phase were selected, and after the respective culture with 0 and 10 μmol/L of the mogrosides and analogs thereof (i.e. Mogroside I E1, Mogroside II A2 and mogrol) for 24 h, cells were collected and washed twice with 200 μl of cold PBS, and then the cells were collected again; 100 μl of binding buffer was added for re-suspending the cells, and after the addition of 2 μl of Annexin V-FITC and well mixing, the resulting mixture was placed in dark at room temperature for 10 min, and then 5 μl of propidium iodide (PI) was added and then well mixed; the mixture was placed in dark at room temperature for 10 min, and detected by flow cytometer, and the results are shown in FIGS. 13-15.
structure (smiles),measurement,setting,value
C[C@H](CC[C@@H](O)C(C)(C)O)[C@H]1CC[C@@]2(C)[C@@H]3CC=C4[C@@H](CC[C@H](O)C4(C)C)[C@]3(C)[C@H](O)C[C@]12C [mogrol],expression level of phosphorylated STAT3 (P-STAT3),[1],significantly decreased
same,expression of cycle regulatory protein P21,[2],significantly up-regulated
same,expression of cycle regulatory protein P21,[3],significantly up-regulated
same,expression of anti-apoptotic protein Bcl-2,[4],significantly down-regulated
same,proportion of cells in G0/G1 phase with the rise of the concentration,"[5]; U937 cells, 0, 1, 10, 150 and 250 μmol/L",gradually increased
same,cell cycle distribution (proportion of cells of G0/G1 phase),"[5]; U937 cells, 10 μmol/L",G0/G1 arrest
same,cell cycle distribution (proportion of cells in the G0/G1 phase),"[6]; human melanoma A875 cells, 10 μmol/L, 24 h",G0/G1 arrest
same,proportion of cells in the G0/G1 phase with the rise of the concentration,"[6]; melanoma A875 cells, different concentrations (FIG. 12)",gradually increased
same,cell cycle distribution (cell cycle arrest),leukemia cells K562 [7],arrested
same,cell apoptosis,[8],induce the apoptosis
same,cell apoptosis,leukemia cells K562 [9],induce the apoptosis
